“And” between values parts separate entries of the source, which are not always exact repeats. Equal values may be shown once.
Key:
[1] = tested on: polymicrobial biofilms of C. albicans (SC5314) and P. aeruginosa (PAO1); parameters: method as in PMID 38222503; details: 0.16 mM, XTT assay, Fig. 8(c); cited from earlier work
[2] = 1H NMR dilution study, dimerization constant (EK model, Bindfit v0.5); format: physicochemical; details: DMSO-d6/0.5% H2O, SSA anion dimerization
From the text: The self-associative properties of SSAs 1–5, and co-formulations a–j, were studied using previously published methodologies, the results of which are summarised in Table 1.[44,45] Initially, we quantified the strength of homogeneous SSA anion self-association events, to confirm the effect of the squaramide – (thio)urea substitution. […] Complimentary ^1H NMR DOSY experiments conducted in DMSO-d6 0.5% H2O solutions at 298 K confirmed the SSA anion and cation components to diffuse at different rates, providing supporting evidence towards the lack of any strong ion pairing interactions between the SSA anionic and cationic components under these experimental conditions. […] The formation of SSA anionic dimers has also been shown in the solid state through single crystal X-ray diffraction experiments.[42,43,46] […] Here the SSA anion dimer is stabilised through the formation of four intermolecular squaramide-anion hydrogen bonds. Proton NMR spectroscopy dilution study data, obtained from a DMSO-d6 0.5% H2O solution, were then fitted to both the EK (the equal K single component linear self-associative or dimerization model) and CoEK (the cooperative equal K single component linear self-associative or dimerization model) self-association models using Bindfit v0.5.[47,48] […] The dimerization constants calculated confirm that substitution of the sulfonate ion (1 and 3) for the carboxylate ion (2) increase Kdim by approximately 50-fold. However, substituting the thiourea (2) for the squaramide (5) functionality increases the Kdim by a further 70-fold. Therefore, confirming our initial hypothesis, that incorporating the squaramide residue within the SSA anion structure would increase the strength of SSA anion self-association events.

[3] = cited from earlier work; for CAC / CAC (mM) / ST at CAC (mN m^−1): H2O:EtOH 19:1, approx. 291 K; for CAC / CAC (mM): surface tension measurements; for ST at CAC (mN/M): Table S1, same datum as Table 1
[4] = tested on: P. aeruginosa (PAO1) biofilms; test: Biofilm inhibition, XTT metabolic assay; format: cell-based, Pseudomonas aeruginosa; details: 2.56 mM, Fig. 7(a)
Experimental: Initially, the ability of SSAs 1–5 to inhibit biofilm formation was determined against P. aeruginosa (PAO1) biofilms through an XTT metabolic assay, used to determine the viability of cells within a biofilm (Section S4, ESI ^†).[57] […] We believe that this may indicate that SSAs which contain a squaramide residue may experience an additional barrier to eliciting an antimicrobial effect that is concentration dependent.
Section S4: Microbial materials and methods
General remarks: The reference strains, Pseudomonas aeruginosa PAO1 and Candida albicans SC5314,
were used in this study. The strains were stored at −80 °C in nutrient broth (NB) (1 gL–1 meat extract, 2
gL–1 yeast extract, 5 gL–1 peptone, and 8 gL–1 sodium chloride) supplemented with 25 and 15 % (v/v)
glycerol, respectively. Before each assay, the P. aeruginosa and C. albicans strains were cultured from
the frozen stock onto nutrient agar (NA) (1 gL –1 […], 2 gL–1 yeast extract, 5 gL–1 peptone, 8 gL–
1 sodium chloride, 20 gL–1 agar) and yeast malt extract (YM) agar (3 gL–1 malt extract, 3 gL–1 yeast […]
for 48 hours at 37 °C and OD measurement (at a wavelength of 595 nm, OD 595) (EZ Read 800 Research, […]
introduced to each well. The plates were incubated for 3 hours at 37 °C in the dark and the absorbance
measured at 492 nm using a microtiter plate reader (EZ Read 800 Research, Biochrom, England). […]
evaluated. […]

[5] = In vivo pharmacokinetic study, intravenous; parameters: species or system female CD-1 mice; details: IV 1 mg/kg
Experimental: In vitro Absorption, Distribution and Metabolism results […]
In vivo Pharmacokinetic study methods
SSA 5 was dosed at 1 mg/kg to female CD -1 mice (n=3) via an intravenous tail vein bolus administration, dose formulation was a solution in 2% DMSO/98% Water. Blood was sampled from the dorsal metatarsal vein at each time point (n=8) and added to tubes containing anticoagulant K2-EDTA. Blood samples were extracted by protein precipitation. Blood concentrations were calculated through UPLC-MS/MS techniques, with internal standard. The lower limit of quantitation was 6.4 nM. PK parameters were calculated using Phoenix WinNonlin version 8.3.

[6] = mouse, whole blood, blood, female CD-1 mice

Row | SMILES | antibiofilm activity [1] | Kdim [2] | CAC [3] [mM] | CAC (mM) [3] | ST at CAC (mN m^−1) [3] | ST at CAC (mN/M) [3] [mN/M] | Inhibition of biofilm formation [4] | further results
1 | O=S(=O)(O)CCCNC(=S)Nc1ccc(C(F)(F)F)cc1 [SSA 1] | 60–80% | 3 M⁻¹ and 2.6 M⁻¹ | 5.61 | 5.6[43] mM | 34[43] mN m^−1 | 33.59 |  | 
2 | O=C(O)CNC(=S)Nc1ccc(C(F)(F)F)cc1 [SSA 2] | 60–80% | 105 M⁻¹ |  |  |  |  |  | 
3 | Cc1ccc2nc(-c3ccc(NC(=O)NCS(=O)(=O)O)cc3)sc2c1 [SSA 3] |  | 3 M⁻¹ and 2.7 M⁻¹ | 0.5 | 0.5[42] mM | 47[42] mN m^−1 | 46.5 |  | 
4 | O=c1c(NCCCS(=O)(=O)O)c(Nc2ccc(C(F)(F)F)cc2)c1=O [SSA 4] |  |  |  |  |  |  | completely inhibit biofilm formation | 
5 | O=C(O)CNc1c(Nc2ccc(C(F)(F)F)cc2)c(=O)c1=O [SSA 5] |  | 7636 M⁻¹ |  |  |  |  | completely inhibit biofilm formation | Cl Blood as % LBF ([5]; female CD-1 mice): > 100 % LBF; concentration at 2 h ([5]; female, CD-1, mouse, whole blood, 2 hours following dosing, read-out: blood level at last detected time): 8.1 nM; clearance ([5]; mouse, whole blood, female CD-1 mice, read-out: Cl Blood): 162 ± 28 mL/min/kg; Vd ([5]; mouse, whole blood, female CD-1 mice, read-out: Vss): 3.1 ± 1.7 L/kg; Cmax ([5]; mouse, whole blood, blood, DMSO:H2O 2:98, female CD-1 mice): 1200 ± 208 nM; AUC(0-inf) [5, 6]: 0.335 ± 0.06 µM·h; AUC(0-t) [5, 6]: 0.327 ± 0.057 µM·h; Tmax [5, 6]: 4.98 min; half-life ([5]; mouse, whole blood, terminal half-life, female CD-1 mice): 43.8 ± 36.6 min
